The supplement of paper PMC10307832

Assays:
Assay in all cases: relative viability (nuclei count vs DMSO), 5 days (fraction); higher = more cells survive
CUDC-101 + Bortezomib = compound: C#Cc1cccc(Nc2ncnc3cc(OC)c(OCCCCCCC(=O)NO)cc23)c1 [CUDC-101] + CC(C)C[C@H](NC(=O)[C@H](Cc1ccccc1)NC(=O)c1cnccn1)B(O)O [Bortezomib] (partner 0.002 µM)
How it was run: (§1)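 Lung cancer cell lines were seeded in 1536-well plates and dosed by pin tool the next day, with either a single drug or a fixed anchor-drug dose combined with five library-drug doses (not always all listed) spaced in √10 steps. Five days later, one step fixed the cells and stained their nuclei (final 0.05% Triton X-100, 1% formaldehyde, 1 ug/ml Hoechst), and nuclei were counted on 4× images. Relative viability is the nuclei count in treated wells divided by the count in vehicle wells, and each value is the median of duplicate plates.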

Vandetanib + Bortezomib = compound: COc1cc2/c(=N/c3ccc(Br)cc3F)nc[nH]c2cc1OCC1CCN(C)CC1 [Vandetanib] + CC(C)C[C@H](NC(=O)[C@H](Cc1ccccc1)NC(=O)c1cnccn1)B(O)O [Bortezomib] (partner 0.002 µM)
How it was run: as §1

NVP-TAE684 + Vorinostat = compound: COc1cc(N2CCC(N3CCN(C)CC3)CC2)ccc1Nc1ncc(Cl)c(Nc2ccccc2S(=O)(=O)C(C)C)n1 [NVP-TAE684] + O=C(CCCCCCC(=O)Nc1ccccc1)NO [Vorinostat] (partner 1 µM)
How it was run: as §1

[1] = compound: C1=CC=C2C(=C1)N=C(S2)C(C#N)C3=NC(=NC=C3)NCCC4=CN=CC=C4 + Cc1cc(Nc2cc(N3CCN(C)CC3)nc(Sc3ccc(NC(=O)C4CC4)cc3)n2)n[nH]1 [Tozasertib] (partner 0.1 µM)
How it was run: as §1

Cell Line | relative viability (CUDC-101 + Bortezomib; first compound 0.01 µM) | relative viability (CUDC-101 + Bortezomib; first compound 0.03162 µM) | relative viability (CUDC-101 + Bortezomib; first compound 0.1 µM) | relative viability (CUDC-101 + Bortezomib; first compound 0.3162 µM) | relative viability (CUDC-101 + Bortezomib; first compound 1 µM) | relative viability (Vandetanib + Bortezomib; first compound 0.02 µM) | relative viability (Vandetanib + Bortezomib; first compound 0.06325 µM) | relative viability (Vandetanib + Bortezomib; first compound 0.2 µM) | relative viability (Vandetanib + Bortezomib; first compound 0.6325 µM) | relative viability (Vandetanib + Bortezomib; first compound 2 µM) | relative viability (NVP-TAE684 + Vorinostat; first compound 0.2 µM) | relative viability (NVP-TAE684 + Vorinostat; first compound 0.6325 µM) | relative viability (NVP-TAE684 + Vorinostat; first compound 2 µM) | relative viability ([1]; first compound 0.005 µM) | relative viability ([1]; first compound 0.01581 µM) | relative viability ([1]; first compound 0.05 µM) | relative viability ([1]; first compound 0.1581 µM) | relative viability ([1]; first compound 0.5 µM)
NCI-H322M | 1.15 | 1.44 | 1.18 | 1.08 | 0.776 | 1.18 | 1.13 | 1.18 | 1.13 | 1.12 | 0.858 | 0.811 | 0.565 | 0.4 | 0.382 | 0.487 | 0.531 | 0.48
NCI-H441 | 0.662 | 0.433 | 0.541 | 0.593 | 0.335 | 0.449 | 0.459 | 0.373 | 0.547 | 0.386 | 0.972 | 0.688 | 0.56 |  | 0.715 | 0.633 | 0.759 | 0.531
NCI-H460 | 1.13 | 1.04 | 1.09 | 1.11 | 1.18 | 1.02 | 0.992 | 1.1 | 1.09 | 0.98 |  | 0.806 | 0.106 | 0.396 | 0.282 | 0.302 | 0.204 | 0.0413
NCI-H520 | 0.761 |  | 0.253 | 0.252 | 0.116 | 0.608 | 0.623 | 0.527 | 0.45 | 0.569 | 0.776 | 0.681 | 0.313 | 0.406 | 0.431 | 0.467 | 0.376 | 0.421
NCI-H596 | 1.13 | 1.13 | 1.18 | 0.98 | 1 | 0.998 | 1 | 0.965 | 0.717 | 0.958 | 0.565 | 0.578 | 0.647 | 0.774 | 1 | 0.81 | 0.917 | 0.853
NCI-H647 | 1.08 | 0.948 | 0.871 | 0.724 | 0.119 | 0.962 | 0.947 | 1.05 | 0.817 | 0.804 | 0.792 | 0.6 | 0.174 | 0.315 | 0.342 | 0.289 | 0.292 | 0.151
NCI-H650 | 0.834 | 0.917 | 0.87 | 0.459 | 0.643 | 0.757 | 0.877 | 0.705 | 0.862 | 0.596 | 0.428 | 0.298 | 0.406 | 0.633 |  | 0.708 | 0.742 | 0.644
NCI-H661 | 1.09 | 0.664 | 0.892 | 0.928 | 0.8 | 0.828 | 0.943 | 0.769 | 0.807 | 0.702 | 0.817 | 0.741 | 0.445 | 0.365 | 0.332 | 0.342 | 0.355 | 0.392
NCI-H727 | 0.823 | 0.967 | 0.775 | 0.993 | 0.397 | 0.791 | 0.657 | 0.783 | 0.856 | 0.872 | 1.09 | 1.25 | 0.869 | 0.629 | 0.674 | 0.51 | 0.512 | 0.686
NCI-H838 | 0.872 | 0.728 | 0.879 | 1.25 | 0.533 | 0.73 | 0.807 | 0.664 | 0.706 | 0.614 | 0.76 | 0.692 | 0.334 | 0.28 | 0.289 | 0.243 | 0.282 | 0.223
NCI-H1355 | 1.31 | 1.17 | 1.24 | 1.18 | 1.03 | 1.22 | 1.18 | 1.16 | 1.22 | 1.27 | 0.561 | 0.605 | 0.327 | 0.445 | 0.516 | 0.463 | 0.594 | 0.385
NCI-H1437 | 0.547 | 0.483 | 0.398 | 0.693 | 0.284 | 0.486 | 0.56 | 0.47 | 0.506 | 0.398 | 0.832 | 0.899 | 0.426 | 0.355 | 0.389 | 0.414 | 0.401 | 0.325
NCI-H1650 | 0.179 | 0.216 | 0.202 | 0.194 | 0.163 | 0.253 | 0.21 |  | 0.209 | 0.195 | 0.573 | 0.561 | 0.502 | 0.289 | 0.405 | 0.391 | 0.377 | 0.315
NCI-H1651 | 1.04 | 0.946 | 0.957 | 0.912 | 0.921 | 0.915 | 0.883 | 0.893 | 0.897 | 0.839 | 0.635 | 0.537 | 0.508 | 0.618 | 0.793 | 0.518 | 0.661 | 0.457
NCI-H1666 | 0.967 | 0.824 | 0.805 | 0.867 | 0.721 | 0.849 | 0.814 | 0.712 | 0.831 | 0.786 | 0.99 | 0.964 | 0.877 | 0.642 | 0.615 | 0.541 | 0.651 | 0.617
NCI-H1734 | 1.12 | 0.919 | 0.874 | 0.956 | 0.478 | 0.976 | 0.869 | 0.944 | 0.904 | 0.926 | 0.846 |  | 0.631 |  | 0.247 | 0.248 | 0.264 | 0.267
NCI-H1755 | 0.985 | 1.06 | 0.88 | 0.933 | 0.79 | 0.998 | 1.04 | 1.07 | 1 | 0.959 | 0.768 | 0.744 | 0.635 | 0.448 | 0.544 | 0.563 | 0.598 | 0.584
